Data reported in US6056950A, “Ophthalmic solutions viscosified with tamarind seed polysaccharide” (Farmigea S.p.A., priority 1996, dated 2000).

Experiment: Residence time / pharmacokinetics of pilocarpine in the tear fluid
Design: species or system male New Zealand albino rabbits
Details: rabbit, in vivo
From the text: Specifically, all of the ophthalmic preparations employed in the tests shown herein contain 2.0% by weight of pilocarpine nitrate (PiNO3), but the control preparation referred to in the following table as RS (i.e. reference solution) is an aqueous solution without any thickening agent, while the preparation according to the invention, referred to below as "TSP", is formulated according to Example 2.1.
All of the tests described herein have been carried out on male New Zealand albino rabbits weighing 3-3.5 kg, non anesthesized and kept in standard stabling conditions, at a temperature of 18-20° C. Both the miotic effect and the residence time of the drug in the tear fluid were measured after instillation (at the time=0) of 25 μl of the preparation under study in the lower conjunctival sac of one eye of the rabbits, while the other eye served as a control.
In order to verify whether the product according to the invention was able to prolong, in comparison with other vehicles, the residence of the drug in the precorneal area, the following test was carried out: after instillation of one of the preparations under test, samples of tear fluid (1 μl) were collected, at suitable time intervals, from the rim portion of the lower conjunctival sac, using a microcapillary and avoiding any contact with the corneal epithelium. The tear fluid samples, transferred into microprobes, were diluted with water and analysed by HPLC.
The results of said test are reported, in terms of pilocarpine concentration (μg/μl) detected in the tear fluid as a function of time, in Table 9 and in the corresponding FIG. 7.
The differences in the performance of the various vehicles are better evidenced by the following table, reporting the pharmacokinetic parameters of pilocarpine in the tear fluid, in the various formulations, as calculated from the tests described above. The said parameters are as follows:
Ke : apparent clearance velocity constant
AUCrel : AUC relative to the reference solution
t1/2 : half-life time of the drug in the tear fluid
MRT: mean residence time of the drug in the tear fluid.

HPMC
AUC t3min→∞: 23.13 µg·min/µL | AUCrel, AUC relative to the reference solution: 6.27 | Ke, apparent clearance velocity constant: 0.098 min⁻¹ | MRT, mean residence time: 8.83 min | increase in half-life with respect to the reference solution: almost of double | pilocarpine concentration in the tear fluid (3 min): 3.894 µg/µL | pilocarpine concentration in the tear fluid (5 min): 1.9 µg/µL | pilocarpine concentration in the tear fluid (10 min): 1.03 µg/µL | pilocarpine concentration in the tear fluid (15 min): 0.583 µg/µL | pilocarpine concentration in the tear fluid (30 min): 0.074 µg/µL | pilocarpine concentration in the tear fluid (45 min): 0.025 µg/µL | pilocarpine concentration in the tear fluid (60 min): 0.016 µg/µL
